{
  "source": "the supplement of paper PMC10307832",
  "assay_in_all_cases": "relative viability (nuclei count vs DMSO), 5 days (fraction); higher = more cells survive",
  "key": {"NCI-H1355": {"tested_on": "NCI-H1355", "method_in_brief": "(§1)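 Relative viability is defined as nuclei in treated wells over nuclei in vehicle wells. Duplicate plates were run and medians reported. Lung cancer cell lines in 1536-well plates were dosed by pin tool one day after seeding, with one drug or with a fixed anchor-drug dose plus five library-drug doses (not always all listed) in √10 steps, and nuclei were counted after 5 days.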"}, "NCI-H322M": {"tested_on": "NCI-H322M", "method_in_brief": "as §1"}, "NCI-H1993": {"tested_on": "NCI-H1993", "method_in_brief": "as §1"}, "NCI-H2342": {"tested_on": "NCI-H2342", "method_in_brief": "as §1"}, "SK-MES-1": {"tested_on": "SK-MES-1", "method_in_brief": "as §1"}, "HOP-62": {"tested_on": "HOP-62", "method_in_brief": "as §1"}, "COR-L 105": {"tested_on": "COR-L 105", "method_in_brief": "as §1"}, "NCI-H2228": {"tested_on": "NCI-H2228", "method_in_brief": "as §1"}, "NCI-H1395": {"tested_on": "NCI-H1395", "method_in_brief": "as §1"}, "NCI-H838": {"tested_on": "NCI-H838", "method_in_brief": "as §1"}, "NCI-H1734": {"tested_on": "NCI-H1734", "method_in_brief": "as §1"}, "NCI-H2170": {"tested_on": "NCI-H2170", "method_in_brief": "as §1"}},
  "data": [
    {"compound": "COc1cc(N2CCC(C(N)=O)CC2)ccc1Nc1nc(N)c(Cl)c(Nc2ccccc2S(=O)(=O)C(C)C)n1", "note": "[HG-5-88-01] + Cc1nc(Nc2ncc(C(=O)Nc3c(C)cccc3Cl)s2)cc(N2CCN(CCO)CC2)n1 [Dasatinib] (partner 0.075 µM)", "values": [
      {"measurement": "relative viability", "setting": "NCI-H1355; first compound 0.04 µM", "value": 0.675},
      {"measurement": "relative viability", "setting": "NCI-H1355; first compound 0.1265 µM", "value": 0.77},
      {"measurement": "relative viability", "setting": "NCI-H1355; first compound 0.4 µM", "value": 0.597},
      {"measurement": "relative viability", "setting": "NCI-H1355; first compound 1.265 µM", "value": 0.574},
      {"measurement": "relative viability", "setting": "NCI-H1355; first compound 4 µM", "value": 0.388},
      {"measurement": "relative viability", "setting": "NCI-H322M; first compound 0.04 µM", "value": 0.247},
      {"measurement": "relative viability", "setting": "NCI-H322M; first compound 0.1265 µM", "value": 0.194},
      {"measurement": "relative viability", "setting": "NCI-H322M; first compound 0.4 µM", "value": 0.189},
      {"measurement": "relative viability", "setting": "NCI-H322M; first compound 4 µM", "value": 0.216},
      {"measurement": "relative viability", "setting": "NCI-H1993; first compound 0.04 µM", "value": 0.633},
      {"measurement": "relative viability", "setting": "NCI-H1993; first compound 0.1265 µM", "value": 0.569},
      {"measurement": "relative viability", "setting": "NCI-H1993; first compound 0.4 µM", "value": 0.502},
      {"measurement": "relative viability", "setting": "NCI-H1993; first compound 1.265 µM", "value": 0.475},
      {"measurement": "relative viability", "setting": "NCI-H1993; first compound 4 µM", "value": 0.581},
      {"measurement": "relative viability", "setting": "NCI-H2342; first compound 0.04 µM", "value": 0.281},
      {"measurement": "relative viability", "setting": "NCI-H2342; first compound 0.1265 µM", "value": 0.336},
      {"measurement": "relative viability", "setting": "NCI-H2342; first compound 0.4 µM", "value": 0.308},
      {"measurement": "relative viability", "setting": "NCI-H2342; first compound 1.265 µM", "value": 0.307},
      {"measurement": "relative viability", "setting": "NCI-H2342; first compound 4 µM", "value": 0.268},
      {"measurement": "relative viability", "setting": "SK-MES-1; first compound 0.04 µM", "value": 0.335},
      {"measurement": "relative viability", "setting": "SK-MES-1; first compound 0.1265 µM", "value": 0.304},
      {"measurement": "relative viability", "setting": "SK-MES-1; first compound 0.4 µM", "value": 0.124},
      {"measurement": "relative viability", "setting": "SK-MES-1; first compound 1.265 µM", "value": 0.112},
      {"measurement": "relative viability", "setting": "SK-MES-1; first compound 4 µM", "value": 0.155},
      {"measurement": "relative viability", "setting": "HOP-62; first compound 0.04 µM", "value": 0.682},
      {"measurement": "relative viability", "setting": "HOP-62; first compound 0.1265 µM", "value": 0.606},
      {"measurement": "relative viability", "setting": "HOP-62; first compound 0.4 µM", "value": 0.487},
      {"measurement": "relative viability", "setting": "HOP-62; first compound 1.265 µM", "value": 0.444},
      {"measurement": "relative viability", "setting": "HOP-62; first compound 4 µM", "value": 0.253},
      {"measurement": "relative viability", "setting": "COR-L 105; first compound 0.04 µM", "value": 0.305},
      {"measurement": "relative viability", "setting": "COR-L 105; first compound 0.1265 µM", "value": 0.314},
      {"measurement": "relative viability", "setting": "COR-L 105; first compound 0.4 µM", "value": 0.254},
      {"measurement": "relative viability", "setting": "COR-L 105; first compound 1.265 µM", "value": 0.203},
      {"measurement": "relative viability", "setting": "COR-L 105; first compound 4 µM", "value": 0.19},
      {"measurement": "relative viability", "setting": "NCI-H2228; first compound 0.04 µM", "value": 0.106},
      {"measurement": "relative viability", "setting": "NCI-H2228; first compound 0.1265 µM", "value": 0.0974},
      {"measurement": "relative viability", "setting": "NCI-H2228; first compound 0.4 µM", "value": 0.0904},
      {"measurement": "relative viability", "setting": "NCI-H2228; first compound 1.265 µM", "value": 0.101},
      {"measurement": "relative viability", "setting": "NCI-H2228; first compound 4 µM", "value": 0.0733},
      {"measurement": "relative viability", "setting": "NCI-H1395; first compound 0.04 µM", "value": 0.416},
      {"measurement": "relative viability", "setting": "NCI-H1395; first compound 0.1265 µM", "value": 0.371},
      {"measurement": "relative viability", "setting": "NCI-H1395; first compound 0.4 µM", "value": 0.393},
      {"measurement": "relative viability", "setting": "NCI-H1395; first compound 1.265 µM", "value": 0.394},
      {"measurement": "relative viability", "setting": "NCI-H1395; first compound 4 µM", "value": 0.36},
      {"measurement": "relative viability", "setting": "NCI-H838; first compound 0.04 µM", "value": 0.266},
      {"measurement": "relative viability", "setting": "NCI-H838; first compound 0.1265 µM", "value": 0.279},
      {"measurement": "relative viability", "setting": "NCI-H838; first compound 0.4 µM", "value": 0.233},
      {"measurement": "relative viability", "setting": "NCI-H838; first compound 1.265 µM", "value": 0.251},
      {"measurement": "relative viability", "setting": "NCI-H838; first compound 4 µM", "value": 0.181},
      {"measurement": "relative viability", "setting": "NCI-H1734; first compound 0.04 µM", "value": 0.412},
      {"measurement": "relative viability", "setting": "NCI-H1734; first compound 0.1265 µM", "value": 0.432},
      {"measurement": "relative viability", "setting": "NCI-H1734; first compound 0.4 µM", "value": 0.326},
      {"measurement": "relative viability", "setting": "NCI-H1734; first compound 1.265 µM", "value": 0.358},
      {"measurement": "relative viability", "setting": "NCI-H1734; first compound 4 µM", "value": 0.284},
      {"measurement": "relative viability", "setting": "NCI-H2170; first compound 0.04 µM", "value": 0.502},
      {"measurement": "relative viability", "setting": "NCI-H2170; first compound 0.1265 µM", "value": 0.441},
      {"measurement": "relative viability", "setting": "NCI-H2170; first compound 0.4 µM", "value": 0.498}
    ]}
  ]
}
